Experiments:
Settings in all cases: 72 h
HepG2 [1] = experiment: cell viability relative to DMSO; higher = less toxic
Vero E6 [2] = experiment: as above
U2OS [3] = experiment: as above
Calu-3 [4] = experiment: as above
Caco-2 [5] = experiment: as above
HepG2 [6] = experiment: relative viability EC50 (midpoint between 100% and the lowest measured viability); higher = less toxic
Vero E6 [7] = experiment: as above
U2OS [8] = experiment: as above
Calu-3 [9] = experiment: as above
Caco-2 [10] = experiment: as above
HepG2 [11] = experiment: drug sensitivity score (DSS) for viability; higher = more toxic; extreme values may be limits of the assay
Vero E6 [12] = experiment: as above
U2OS [13] = experiment: as above
Calu-3 [14] = experiment: as above
Caco-2 [15] = experiment: as above

| Structure (SMILES) | cell viability (HepG2 [1]; 1 nM) | cell viability (HepG2 [1]; 10 nM) | cell viability (HepG2 [1]; 100 nM) | cell viability (HepG2 [1]; 1000 nM) | cell viability (HepG2 [1]; 10000 nM) | cell viability (Vero E6 [2]; 1 nM) | cell viability (Vero E6 [2]; 10 nM) | cell viability (Vero E6 [2]; 100 nM) | cell viability (Vero E6 [2]; 1000 nM) | cell viability (Vero E6 [2]; 10000 nM) | cell viability (U2OS [3]; 1 nM) | cell viability (U2OS [3]; 10 nM) | cell viability (U2OS [3]; 100 nM) | cell viability (U2OS [3]; 1000 nM) | cell viability (U2OS [3]; 10000 nM) | cell viability (Calu-3 [4]; 1 nM) | cell viability (Calu-3 [4]; 10 nM) | cell viability (Calu-3 [4]; 100 nM) | cell viability (Calu-3 [4]; 1000 nM) | cell viability (Calu-3 [4]; 10000 nM) | cell viability (Caco-2 [5]; 1 nM) | cell viability (Caco-2 [5]; 10 nM) | cell viability (Caco-2 [5]; 100 nM) | cell viability (Caco-2 [5]; 1000 nM) | cell viability (Caco-2 [5]; 10000 nM) | relative viability EC50 (HepG2 [6]) | relative viability EC50 (Vero E6 [7]) | relative viability EC50 (U2OS [8]) | relative viability EC50 (Calu-3 [9]) | relative viability EC50 (Caco-2 [10]) | drug sensitivity score (HepG2 [11]) | drug sensitivity score (Vero E6 [12]) | drug sensitivity score (U2OS [13]) | drug sensitivity score (Calu-3 [14]) | drug sensitivity score (Caco-2 [15]) |
| --- | --- | --- | --- | --- | --- | --- | --- | --- | --- | --- | --- | --- | --- | --- | --- | --- | --- | --- | --- | --- | --- | --- | --- | --- | --- | --- | --- | --- | --- | --- | --- | --- | --- | --- | --- |
| COc1cc(C(=S)N2CCOCC2)cc(OC)c1OC [sulmetozine] | 95% | 102% | 98.6% | 111% | 108% | 103% | 94.7% | 105% | 97.7% | 113% | 97.2% | 103% | 94.6% | 96.3% | 102% | 96.5% | 99.4% | 102% | 99.9% | 105% | 90.8% | 98% | 90.6% | 91.6% | 103% | > 10 µM | > 10 µM | > 10 µM | > 10 µM | > 10 µM | 0 | 0 | 0 | 0 | 0 |
| Cc1coc2c1C(=O)C(=O)c1c-2ccc2c(C)cccc12 [tanshinone-I] | 91% | 104% | 89.4% | 111% | 105% | 91.9% | 94.9% | 90.7% | 96.5% | 104% | 97.8% | 97.8% | 103% | 93.9% | 95.2% | 93.8% | 91.7% | 104% | 110% | 100% | 93.1% | 97.4% | 104% | 90.7% | 86.2% | > 10 µM | > 10 µM | > 10 µM | > 10 µM | > 10 µM | 0 | 0 | 0 | 0 | 0.7 |
| CCCCCNC(=N)N/N=C/c1c[nH]c2ccc(OC)cc12 [tegaserod] | 94.6% | 94% | 109% | 105% | 114% | 100% | 94.4% | 97.8% | 90.7% | 92.8% | 94.1% | 99.3% | 94.6% | 97.7% | 95.9% | 105% | 96.3% | 97.9% | 91.4% | 92.9% | 83.7% | 89.8% | 108% | 84.7% | 96.9% | > 10 µM | > 10 µM | > 10 µM | > 10 µM | > 10 µM | 0 | 0 | 0 | 0 | 0 |
| O=C(CNC(=O)c1cccc(C(F)(F)F)c1)N[C@@H]1CCN(Cc2ccc(Cl)cc2)C1 [teijin-compound-1] | 108% | 110% | 107% | 92% | 83.8% | 109% | 102% | 100% | 98.1% | 94.8% | 95.7% | 98.5% | 95.6% | 99.7% | 91.1% | 95.9% | 98.8% | 95.9% | 94.4% | 91.5% | 113% | 108% | 106% | 98.8% | 78% | > 10 µM | > 10 µM | > 10 µM | > 10 µM | > 10 µM | 1 | 0 | 0 | 0 | 0.9 |
| CCOC(=O)[C@H](CCc1ccccc1)N[C@H]1CS[C@H](c2cccs2)CN(CC(=O)O)C1=O [temocapril] | 103% | 98.6% | 108% | 96.7% | 112% | 98.8% | 105% | 109% | 91.3% | 97.8% | 97.7% | 101% | 94.2% | 99.2% | 95.4% | 93.8% | 108% | 95.5% | 103% | 102% | 99.4% | 95.8% | 93.2% | 93.3% | 105% | > 10 µM | > 10 µM | > 10 µM | > 10 µM | > 10 µM | 0 | 0 | 0 | 0 | 0 |
| COc1cc2c(cc1OC)C1CC(=O)C(CC(C)C)CN1CC2 (stereo not given) [tetrabenazine] | 95.1% | 99.4% | 98.8% | 99.9% | 105% | 96.6% | 97.8% | 96.2% | 99.1% | 95% | 95.9% | 99.3% | 94.7% | 93.9% | 103% | 107% | 103% | 96.3% | 105% | 104% | 97.6% | 99.3% | 96.3% | 96.5% | 100% | > 10 µM | > 10 µM | > 10 µM | > 10 µM | > 10 µM | 0 | 0 | 0 | 0 | 0 |
| O=C(O)C(=O)c1cn(Cc2ccccc2)c2ccc(-c3ccc(OC(F)(F)F)cc3)cc12 [tiplaxtinin] | 104% | 98.8% | 102% | 93.8% | 93.1% | 108% | 106% | 96.6% | 98.2% | 81.3% | 94.5% | 92.1% | 104% | 94.7% | 96.5% | 113% | 95.5% | 96.8% | 98.6% | 104% | 104% | 106% | 102% | 92.2% | 92.8% | > 10 µM | > 10 µM | > 10 µM | > 10 µM | > 10 µM | 0 | 0.7 | 0 | 0 | 0 |
| NC[C@H]1O[C@H](O[C@H]2[C@H](O)[C@@H](O[C@H]3O[C@H](CO)[C@@H](O)[C@H](N)[C@H]3O)[C@H](N)C[C@@H]2N)[C@H](N)C[C@@H]1O [tobramycin] | 108% | 94.5% | 104% | 97.6% | 106% | 99.6% | 101% | 100% | 95.7% | 107% | 95% | 103% | 97.6% | 100% | 108% | 99.4% | 102% | 101% | 98.5% | 102% | 90.2% | 92.8% | 104% | 92.6% | 106% | > 10 µM | > 10 µM | > 10 µM | > 10 µM | > 10 µM | 0 | 0 | 0 | 0 | 0 |
| Cc1cc(-n2c(=O)[nH]c(=O)n(C)c2=O)ccc1Oc1ccc(SC(F)(F)F)cc1 [toltrazuril] | 90.4% | 107% | 99.5% | 95.9% | 102% | 99.5% | 105% | 101% | 96.3% | 95.8% | 97.2% | 95.2% | 93.1% | 99.6% | 92.1% | 98.8% | 83.1% | 105% | 106% | 101% | 104% | 109% | 105% | 97.1% | 97.4% | > 10 µM | > 10 µM | > 10 µM | > 10 µM | > 10 µM | 0 | 0 | 0 | 0 | 0 |
| CCCc1c(OCCCCc2nnn[nH]2)ccc(C(C)=O)c1O [tomelukast] | 95.6% | 90.3% | 94.5% | 82.9% | 84.8% | 94.5% | 98.5% | 107% | 96.6% | 106% | 94.9% | 103% | 98.1% | 99.7% | 99.6% | 87.4% | 105% | 107% | 102% | 104% | 88.9% | 93.9% | 97.8% | 105% | 97.6% | > 10 µM | > 10 µM | > 10 µM | > 10 µM | > 10 µM | 1.5 | 0 | 0 | 0 | 0 |
| CN1C(=O)OC(C)(C)C1=O [trimethadione] | 103% | 105% | 93.6% | 80.4% | 90% | 100% | 100% | 101% | 85.1% | 104% | 103% | 99.9% | 103% | 105% | 108% | 96.1% | 102% | 97.9% | 118% | 108% | 101% | 97.3% | 114% | 90% | 93.3% | > 10 µM | > 10 µM | > 10 µM | > 10 µM | > 10 µM | 3.4 | 0 | 0 | 0 | 0 |
| COc1cc(C[C@@H]2NCCc3cc(O)c(O)cc32)cc(OC)c1OC [trimethoquinol] | 110% | 99.2% | 112% | 90.6% | 83.5% | 103% | 93.1% | 108% | 93.8% | 96.9% | 89.5% | 97% | 97.3% | 102% | 107% | 91.7% | 88.9% | 101% | 86% | 95.7% | 91.3% | 114% | 118% | 107% | 80.3% | > 10 µM | > 10 µM | > 10 µM | > 10 µM | > 10 µM | 1.1 | 0 | 0 | 0 | 0.3 |
| N#CC(C#N)=Cc1ccc(O)c(O)c1 [tyrphostin-AG-18] | 93% | 96.8% | 97.7% | 102% | 87.9% | 96.4% | 92.1% | 96.6% | 94.9% | 94.9% | 96.1% | 98.1% | 95.2% | 96.5% | 92.1% | 93.5% | 104% | 105% | 107% | 111% | 88.2% | 96.4% | 93.9% | 89.2% | 91.6% | > 10 µM | > 10 µM | > 10 µM | > 10 µM | > 10 µM | 0 | 0 | 0 | 0 | 0 |
| COc1cc(N)c(Cl)cc1C(=O)NC1CN2CCC1CC2 (stereo not given) [zacopride] | 107% | 99.5% | 102% | 100% | 109% | 98.9% | 92.8% | 97.9% | 97.4% | 106% | 92.5% | 96.3% | 96.7% | 98.3% | 92.2% | 96.9% | 100% | 97% | 85% | 95.3% | 101% | 97.6% | 97.6% | 95.7% | 110% | > 10 µM | > 10 µM | > 10 µM | > 10 µM | > 10 µM | 0 | 0 | 0 | 0 | 0 |

Source: the supplement of paper PMC13380429
